According to patent US20230391758A1, “MODIFIED BENZOFURAN-CARBOXAMIDES AS GLUCOSYLCERAMIDE SYNTHASE INHIBITORS” (MERCK SHARP & DOHME CORP., priority 2020, published 2023):

Molecular target: GCS enzyme (glucosylceramide synthase) contained within Golgi preparations isolated from human A375 malignant melanoma skin cells (Homo sapiens (Human), UniProt Q16739)
Assay: UDP-Glo glucosylceramide synthase biochemical assay
Details: 1.5 μg crude golgi preparation from A375 cells; C6 ceramide and UDP-glucose at 2×Km; 20 h incubation at room temperature; UDP detected by luminescence
Description: UDP-Glo™ Glucosylceramide Synthase Biochemical Assay
A UDP-Glo™ glucosylceramide synthase biochemical assay was utilized to evaluate the effect of test compounds on the activity of endogenous levels of GCS enzyme contained within Golgi preparations isolated from human A375 malignant melanoma skin cells. The UDP-Glo™ glucosylceramide synthase assay uses UDP-Glucose as a nucleotide-glycosyl donor and ceramide as substrate acceptor molecules. In the reaction, glucosylceramide synthase (GCS) transfers glucose from UDP-Glucose to ceramide. Glucosylceramide and UDP are released as products.
Using Promega's UDP-Glo™ Glycosyltransferase assay kit (Promega Corporation, Madison, WI, USA (Promega)), GCS activity was indirectly measured by detecting the amount of UDP produced. An aliquot of GCS enzyme (1.5 μg crude golgi preparation, total protein) and titrated test compound were aliquoted to each well and incubated for 30 minutes at room temperature. Substrate mixture was prepared by mixing C6 ceramide (Avanti Polar Lipids, Alabaster, AL USA (Avanti)) (micelles prepared at 0.6 mM in 0.6 mM DOPC) and UDP-glucose (20 μ.M; Promega), at concentrations equivalent to 2×Km, in assay buffer (25 mM HEPES (pH 7.5), 50 mM KCl, 5 mM MgCl2). An equivalent volume of substrate mixture was then added to each well. Following a 20 h incubation at room temperature to allow for GCS turnover of substrate, an equal volume of UDP detection reagent (Promega) was added to each well and incubated for an additional 75 minutes at room temperature to simultaneously convert the accumulated UDP product into ATP and generate light in a luciferase reaction. The generated light was detected using a luminometer. […] luminescence values (RLUs) were normalized to mean “min” and “max” effects, as determined on each plate. “Min” was defined as the mean of the values of the wells treated with vehicle (DMSO) and which represent 0% inhibition; “max” was defined as the mean of the values of the wells treated with a reference inhibitor and which represent the 100% effect. Values for % Emax and EC50 were determined by best-fitting the normalized data to a curve in Activity Base along a four-parameter logistic nonlinear regression (4PL) model (based on the Levenberg-Marquardt algorithm and defined by the equation below): […]
where: n is 4PMin (bottom of the curve); m is 4PMax (top of the curve); i is IP (inflection point of curve); and p is slope. See Levenberg, K., “A Method for the Solution of Certain Problems in Least Squares”, Quart. Appl. Math. 2, (1944), pp 164-168 and Marquardt, D., “An Algorithm for Least Squares Estimation on Nonlinear Parameters”, SIAM J. Appl. Math. 11, (1963) pp 431-441.

Sequence of GCS enzyme (glucosylceramide synthase) contained within Golgi preparations isolated from human A375 malignant melanoma skin cells (Q16739 whole entry): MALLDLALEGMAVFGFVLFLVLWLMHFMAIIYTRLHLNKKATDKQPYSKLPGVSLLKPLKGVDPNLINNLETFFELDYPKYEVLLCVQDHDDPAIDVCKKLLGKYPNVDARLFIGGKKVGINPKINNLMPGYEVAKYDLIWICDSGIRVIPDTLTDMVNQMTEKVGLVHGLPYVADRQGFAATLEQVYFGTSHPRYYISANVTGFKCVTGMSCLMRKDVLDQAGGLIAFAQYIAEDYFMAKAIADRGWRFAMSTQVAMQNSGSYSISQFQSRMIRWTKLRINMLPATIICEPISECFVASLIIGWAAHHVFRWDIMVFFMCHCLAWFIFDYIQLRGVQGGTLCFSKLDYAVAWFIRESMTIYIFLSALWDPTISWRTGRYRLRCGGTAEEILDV

Compound	EC50 [nM]
O=C(Nc1ccc2cnccc2n1)c1cc2cccc(-c3ccccc3OCC(F)(F)F)c2o1 [Compound 22, N-(1,6-naphthyridin-2-yl)-7-[2-(2,2,2-trifluoroethoxy)phenyl] benzofuran-2-carboxamide]	0.023
O=C(NC1CCC(O)CC1F)c1cc2cccc(-c3ccccc3OCC(F)(F)F)c2o1 (stereo not drawn) [Compound 11, N-(2-fluoro-4-hydroxy-cyclohexyl)-7-[2-(2,2,2-trifluoroethoxy)phenyl] benzofuran-2-carboxamide]	7.1
O=C(N[C@@H]1CNCC[C@H]1F)c1cc2cccc(-c3ccccc3OCC(F)(F)F)c2o1 (relative stereo) [Compound 15, N-(trans-4-fluoro-3-piperidyl)-7-[2-(2,2,2-trifluoroethoxy)phenyl] benzofuran-2-carboxamide]	1.7
O=C(N[C@H]1CC[C@H](CO)CC1)c1cc2cc(F)cc(-c3ccccc3OCC(F)(F)F)c2o1 [Compound 1, 5-fluoro-N-(trans-4-(hydroxymethyl)cyclohexyl)-7-(2-(2,2,2-trifluoroethoxy)phenyl) benzofuran-2-carboxamide]	0.99
CCCOc1ccccc1-c1cccc2cc(C(=O)NC3CCNCC3(F)F)oc12 (single isomer, unassigned) [Compound 18, N-[(4R or 4S)-3,3-difluoro-4-piperidyl]-7-(2-propoxyphenyl)benzofuran-2-carboxamide]	140
O=C(N[C@H]1CC[C@H](O)CC1)c1cc2cccc(-c3ccccc3OCC(F)(F)F)c2o1 [Compound 34, Trans-N-(4-hydroxycyclohexyl)-7-[2-(2,2,2-trifluoroethoxy)phenyl] benzofuran-2-carboxamide]	34
